Reference: patent US12428406B2 (PMV Pharmaceuticals, Inc., priority 2019, dated 2025)

Biological target: T1, p53 Y220C (Homo sapiens, UniProt P04637, Y220C)
T1 construct: The recombinant protein was a truncation mutant containing only amino acids 94-312 of p53; made in house; host or cells: E. coli
Experiment: In vitro DNA binding activity assay (HTRF / TR-FRET): stabilization of p53 Y220C and increase of its DNA binding activity
Type: biochemical
Details: recombinant His-tagged p53 Y220C DNA binding domain (aa 94-312), biotin-labeled consensus DNA, incubated at 27° C. or 29° C. for 60 min
Procedure, shortened: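 Homogeneous time-resolved fluorescence with E. coli-derived p53 Y220C and biotinylated consensus DNA. Room-temperature incubations of 15 and 20 min precede reading. SC150 denotes the compound concentration required for 50% increased DNA binding.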

T1 sequence (P04637 94-312, change not shown): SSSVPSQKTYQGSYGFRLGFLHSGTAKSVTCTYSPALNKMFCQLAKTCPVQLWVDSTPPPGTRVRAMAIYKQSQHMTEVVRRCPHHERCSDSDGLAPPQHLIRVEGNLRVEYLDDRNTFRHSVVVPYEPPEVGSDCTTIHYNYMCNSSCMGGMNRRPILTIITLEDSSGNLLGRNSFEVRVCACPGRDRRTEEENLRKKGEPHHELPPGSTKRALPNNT

Row | SC150 (concentration of the compound required to increase the DNA binding activity by 50%) | Compound
1 | + (+ = 0 μM ≤ SC150 < 0.05 μM) | COc1cc(S(C)(=O)=O)ccc1NCC#Cc1cc2c(NC3CCN(C(C)C)CC3)cccc2n1CC(F)(F)F [Compound 542A, 2-{3-[(4-methanesulfonyl-2-methoxyphenyl)amino]prop-1-yn-1-yl}-N-[1-(propan-2-yl)piperidin-4-yl]-1-(2,2,2-trifluoroethyl)-1H-indol-4-amine]
2 | + (+ = 0 μM ≤ SC150 < 0.05 μM) | COc1cc(S(N)(=O)=O)ccc1NCC#Cc1cc2c(NC3CCN(C(C)C)CC3)cccc2n1CC(F)(F)F [Compound 543A, 3-methoxy-4-{[3-(4-{[1-(propan-2-yl)piperidin-4-yl]amino}-1-(2,2,2-trifluoroethyl)-1H-indol-2-yl)prop-2-yn-1-yl]amino}benzene-1-sulfonamide]
3 | + (+ = 0 μM ≤ SC150 < 0.05 μM) | COc1cc(S(C)(=O)=O)ccc1NCC#Cc1cc2c(NC3CCN(CCOCCOCCO)CC3)cccc2n1CC(F)(F)F [Compound 544A, 2-[2-(2-{4-[(2-{3-[(4-methanesulfonyl-2-methoxyphenyl)amino]prop-1-yn-1-yl}-1-(2,2,2-trifluoroethyl)-1H-indol-4-yl)amino]piperidin-1-yl}ethoxy)ethoxy]ethan-1-ol]
4 | + (+ = 0 μM ≤ SC150 < 0.05 μM) | COc1cc(S(C)(=O)=O)ccc1NCC#Cc1cc2c(NC3CCN(CC4COC(=O)O4)CC3)cccc2n1CC(F)(F)F (stereo not shown) [Compound 545A, 4-({4-[(2-{3-[(4-methanesulfonyl-2-methoxyphenyl)amino]prop-1-yn-1-yl}-1-(2,2,2-trifluoroethyl)-1H-indol-4-yl)amino]piperidin-1-yl}methyl)-1,3-dioxolan-2-one]
5 | + (+ = 0 μM ≤ SC150 < 0.05 μM) | COc1cc(S(N)(=O)=O)ccc1NCC#Cc1cc2c(NC3CCN(CC4COC(=O)O4)CC3)cccc2n1CC(F)(F)F (stereo not shown) [Compound 546A, 3-methoxy-4-({3-[4-({1-[(2-oxo-1,3-dioxolan-4-yl)methyl]piperidin-4-yl}amino)-1-(2,2,2-trifluoroethyl)-1H-indol-2-yl]prop-2-yn-1-yl}amino)benzene-1-sulfonamide]
6 | + (+ = 0 μM ≤ SC150 < 0.05 μM) | COc1cc(S(=O)(=O)Nc2ccon2)ccc1NCC#Cc1cc2c(NC3CCN(CC(O)CO)CC3)cccc2n1CC(F)(F)F (stereo not shown) [Compound 547A, 4-{[3-(4-{[1-(2,3-dihydroxypropyl)piperidin-4-yl]amino}-1-(2,2,2-trifluoroethyl)-1H-indol-2-yl)prop-2-yn-1-yl]amino}-3-methoxy-N-(1,2-oxazol-3-yl)benzene-1-sulfonamide]
7 | + (+ = 0 μM ≤ SC150 < 0.05 μM) | COc1cc(S(N)(=O)=O)ccc1NCC#Cc1cc2c(NC3CCN(C[C@H](O)CO)CC3)cccc2n1CC(F)(F)F [Compound 549A, (rac)-4-({3-[4-({1-[2,3-dihydroxypropyl]piperidin-4-yl}amino)-1-(2,2,2-trifluoroethyl)-1H-indol-2-yl]prop-2-yn-1-yl}amino)-3-methoxybenzene-1-sulfonamide]
8 | + (+ = 0 μM ≤ SC150 < 0.05 μM) | COc1cc(S(N)(=O)=O)ccc1NCC#Cc1cc2c(NC3CCN(C[C@@H](O)CO)CC3)cccc2n1CC(F)(F)F [Compound 550A, (rac)-4-({3-[4-({1-[2,3-dihydroxypropyl]piperidin-4-yl}amino)-1-(2,2,2-trifluoroethyl)-1H-indol-2-yl]prop-2-yn-1-yl}amino)-3-methoxybenzene-1-sulfonamide]
9 | + (+ = 0 μM ≤ SC150 < 0.05 μM) | COc1cc(S(=O)(=O)NC2CCOCC2)ccc1NCC#Cc1cc2c(NC3CCN(CC(O)CO)CC3)cccc2n1CC(F)(F)F (stereo not shown) [Compound 552A, 4-{[3-(4-{[1-(2,3-dihydroxypropyl)piperidin-4-yl]amino}-1-(2,2,2-trifluoroethyl)-1H-indol-2-yl)prop-2-yn-1-yl]amino}-3-methoxy-N-(oxan-4-yl) benzene-1-sulfonamide]
10 | + (+ = 0 μM ≤ SC150 < 0.05 μM) | COc1cc(S(=O)(=O)N(C)CCO)ccc1NCC#Cc1cc2c(NC3CCN(CC(O)CO)CC3)cccc2n1CC(F)(F)F (stereo not shown) [Compound 553A, 4-{[3-(4-{[1-(2,3-dihydroxypropyl)piperidin-4-yl]amino}-1-(2,2,2-trifluoroethyl)-1H-indol-2-yl)prop-2-yn-1-yl]amino}-N-(2-hydroxyethyl)-3-methoxy-N-methylbenzene-1-sulfonamide]
11 | + (+ = 0 μM ≤ SC150 < 0.05 μM) | COc1cc(C(C)(C)C#N)ncc1NCC#Cc1cc2c(NC3CCN(CC(O)CO)CC3)cccc2n1CC(F)(F)F (stereo not shown) [Compound 554A, 2-(5-{[3-(4-{[1-(2,3-dihydroxypropyl)piperidin-4-yl]amino}-1-(2,2,2-trifluoroethyl)-1H-indol-2-yl)prop-2-yn-1-yl]amino}-4-methoxypyridin-2-yl)-2-methylpropanenitrile]
12 | + (+ = 0 μM ≤ SC150 < 0.05 μM) | COc1cc(S(=O)(=O)N(C)CCO)ccc1NCC#Cc1cc2c(NC3CCN(C4CCOCC4)CC3)cccc2n1CC(F)(F)F [Compound 555A, N-(2-hydroxyethyl)-3-methoxy-N-methyl-4-{[3-(4-{[1-(oxan-4-yl)piperidin-4-yl]amino}-1-(2,2,2-trifluoroethyl)-1H-indol-2-yl)prop-2-yn-1-yl]amino}benzene-1-sulfonamide]
13 | + (+ = 0 μM ≤ SC150 < 0.05 μM) | COc1cc(S(C)(=O)=O)ccc1NCC#Cc1cc2c(NC3CCN(C[C@@H](O)CO)CC3)cccc2n1CC(F)(F)F [Compound 557A, (2R)-3-{4-[(2-{3-[(4-methanesulfonyl-2-methoxyphenyl)amino]prop-1-yn-1-yl}-1-(2,2,2-trifluoroethyl)-1H-indol-4-yl)amino]piperidin-1-yl}propane-1,2-diol]
14 | + (+ = 0 μM ≤ SC150 < 0.05 μM) | COc1cc(S(C)(=O)=O)ccc1NCC#Cc1cc2c(NC3CCN(C[C@H](O)CO)CC3)cccc2n1CC(F)(F)F [Compound 558A, (2S)-3-{4-[(2-{3-[(4-methanesulfonyl-2-methoxyphenyl)amino]prop-1-yn-1-yl}-1-(2,2,2-trifluoroethyl)-1H-indol-4-yl)amino]piperidin-1-yl}propane-1,2-diol]
15 | + (+ = 0 μM ≤ SC150 < 0.05 μM) | COc1cc(S(=O)(=O)N2CCN(C)CC2)ccc1NCC#Cc1cc2c(NC3CCN(CC(O)CO)CC3)cccc2n1CC(F)(F)F (stereo not shown) [Compound 559A, 3-[4-({2-[3-({2-methoxy-4-[(4-methylpiperazin-1-yl)sulfonyl]phenyl}amino)prop-1-yn-1-yl]-1-(2,2,2-trifluoroethyl)-1H-indol-4-yl}amino)piperidin-1-yl]propane-1,2-diol]
16 | + (+ = 0 μM ≤ SC150 < 0.05 μM) | COc1cc(S(N)(=O)=O)ccc1NCC#Cc1cc2c(NC3CCN(C[C@@H]4COC(=O)O4)CC3)cccc2n1CC(F)(F)F [Compound 562A, 3-methoxy-4-[(3-{4-[(1-{[(4R)-2-oxo-1,3-dioxolan-4-yl]methyl}piperidin-4-yl)amino]-1-(2,2,2-trifluoroethyl)-1H-indol-2-yl}prop-2-yn-1-yl)amino]benzene-1-sulfonamide]
